Among the test systems are 786-0 renal; DU-145 prostate; MDA-MB-435; OVCAR-8 ovarian; SF-295 CNS; SK-MEL-2 melanoma; SR leukemia; U251 CNS; HCC-2998 colon; HT29 colon.
Assay in all cases: NCI anticancer screen, dose series, 48 h

Several values for one entry are separate records, joined by “and”; a condition that tells them apart may be missing. Identical values can stand only once.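 Cells were grown in 96-well plates and exposed to each compound for 48 hours at five concentrations; endpoints were interpolated linearly between bracketing concentrations, or set to the highest concentration if not reached. The concentration for 50% growth inhibition is given as GI50. TGI: concentration producing complete growth inhibition.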 Where only a bound is given, the exact number is not on record here.

Regarding `N#CC1=C(N)NC(=S)NC12Nc1ccccc1N2`, the GI50 in the test on 786-0 renal was 51.7 µM; in the test on DU-145 prostate, 65.3 µM; in the test on MDA-MB-435 it was 19.6 µM; in the test with OVCAR-8 ovarian, 38.6 µM; in the test with SF-295 CNS, 33.1 µM; in the test on SK-MEL-2 melanoma, 18.6 µM. For the same compound, the GI50 in the test with SR leukemia is 6.18 µM; in the test on U251 CNS, greater than 100 µM. Further, the TGI in the test on 786-0 renal, with DU-145 prostate, in the test on MDA-MB-435, with OVCAR-8 ovarian, with SF-295 CNS and in the test on SK-MEL-2 melanoma was greater than 100 µM in each case. The TGI with SR leukemia and with U251 CNS was greater than 100 µM throughout.

In the case of `O=C1OC(c2ccccc2)(c2cc(Br)c(O)c(Br)c2)c2ccccc21` (stereo not drawn), the GI50 in the test on 786-0 renal was 19.3 µM; in the test with DU-145 prostate, 27.4 µM; in the test with HCC-2998 colon it was 19.9 µM; in the test with MDA-MB-435, 22.6 µM; in the test with OVCAR-8 ovarian, 29.3 µM; with SF-295 CNS it was 17.5 µM. Besides, the results for the GI50 in the test with SR leukemia and with U251 CNS were 26 µM and 16.9 µM, respectively. The TGI in the test on 786-0 renal was 38.7 µM; with DU-145 prostate it was greater than 100 µM; with HCC-2998 colon it was 37.8 µM; in the test with MDA-MB-435 it was 77.1 µM; in the test on OVCAR-8 ovarian, greater than 100 µM; in the test on SF-295 CNS it was 59.1 µM. Moreover, the values for the TGI with SR leukemia and with U251 CNS were greater than 100 µM and 38 µM, respectively.

Take `CSc1ncnc2c1ncn2C1OC(CO)C(O)OC1O` (stereo not drawn): the TGI in the test with 786-0 renal is 43.5 µM; with DU-145 prostate it was 39.4 µM; in the test on HT29 colon, greater than 37.4 µM; with MDA-MB-435 it was 23.8 µM; with OVCAR-8 ovarian, 52.4 µM; with SF-295 CNS it was greater than 71.3 µM. Also, the TGI in the test with SK-MEL-2 melanoma was 18.9 µM; with SR leukemia it was greater than 100 µM; in the test on U251 CNS, 30.1 µM.

As to `CC1(C)CCC(C)(C)c2c1ccc(O)c2Cc1c(O)ccc2c1C(C)(C)CCC2(C)C`, the TGI was 3.61 µM with 786-0 renal; 5.45 µM in the test with DU-145 prostate; 4.4 µM in the test with HT29 colon; 3.48 µM in the test with MDA-MB-435; 4.53 µM in the test on OVCAR-8 ovarian; 4.99 µM in the test with SF-295 CNS. In addition, the results for the TGI in the test with SK-MEL-2 melanoma, with SR leukemia and in the test with U251 CNS were 3.19 µM, 6.8 µM and 3.18 µM, respectively.

For the compound `COc1ccc(-c2cc(-c3ccc(O)cc3)nc3n[nH]c(N)c23)cc1`, the GI50 is 26 µM in the test with 786-0 renal; 15.3 µM in the test on DU-145 prostate; 22.6 µM with HT29 colon; 22 µM with MDA-MB-435; 26.1 µM in the test with OVCAR-8 ovarian; 18.5 µM with SF-295 CNS. The results for the GI50 in the test with SK-MEL-2 melanoma, with SR leukemia and with U251 CNS were 16.4 µM, 24.1 µM and 18.6 µM, respectively. In addition, the TGI is 74.3 µM in the test with 786-0 renal; 36.5 µM with DU-145 prostate; greater than 100 µM in the test with HT29 colon; 47.4 µM in the test on MDA-MB-435; 91.6 µM in the test on OVCAR-8 ovarian; 51.9 µM with SF-295 CNS. Moreover, the figures for the TGI in the test with SK-MEL-2 melanoma, in the test on SR leukemia and with U251 CNS were 35.1 µM, greater than 100 µM and 46.7 µM, respectively.

With `CCS(=O)(=O)Nc1cccc(Nc2c3cccc(C)c3nc3c(C)cccc23)c1OC`, the GI50 in the test on 786-0 renal is 0.485 µM; in the test with DU-145 prostate, 0.545 µM; with HCC-2998 colon, 2.99 µM; in the test with HT29 colon, 1.93 µM; in the test with MDA-MB-435, 4.05 µM; in the test with OVCAR-8 ovarian it was 1.19 µM. Besides, the GI50 was 0.381 µM in the test with SF-295 CNS, 10.5 µM in the test with SK-MEL-2 melanoma and 0.404 µM with U251 CNS. Besides, the TGI in the test with 786-0 renal is 10.4 µM; with DU-145 prostate, 14.1 µM; with HCC-2998 colon, greater than 71.1 µM; with HT29 colon it was 10.5 µM; with MDA-MB-435, greater than 86 µM; in the test on OVCAR-8 ovarian, 74.5 µM. Also, the values for the TGI in the test on SF-295 CNS, in the test on SK-MEL-2 melanoma and with U251 CNS were 22.1 µM, 59.8 µM and 19.8 µM, respectively.

Consider `COc1ccc(-c2nc(N3CCN(C(=O)C4CCCCC4)CC3)c3c4c(sc3n2)CCCC4)cc1`, for which the GI50 is 38.2 µM in the test with 786-0 renal; greater than 100 µM with DU-145 prostate; greater than 100 µM in the test on HCC-2998 colon; greater than 100 µM in the test on HT29 colon; greater than 100 µM in the test with MDA-MB-435; 46.4 µM with OVCAR-8 ovarian. Further, the GI50 in the test on SF-295 CNS was 26.2 µM; in the test on SR leukemia, greater than 100 µM; in the test on U251 CNS it was 37.9 µM. The TGI with 786-0 renal, with DU-145 prostate, in the test with HCC-2998 colon, with HT29 colon, in the test with MDA-MB-435 and in the test with OVCAR-8 ovarian was greater than 100 µM each time. The results for the TGI with SF-295 CNS, in the test with SR leukemia and with U251 CNS were 85.1 µM, greater than 100 µM and greater than 100 µM, respectively.

Regarding `Cc1cc2c(c3oc(C4(C)OC4C4OC4C)cc(=O)c13)C(=O)c1c(O)c(C3CC(C)(N(C)C)C(O)C(C)O3)cc(C3CC(N(C)C)C(O)C(C)O3)c1C2=O` (stereo not drawn), the GI50 in the test on 786-0 renal was 0.000463 µM; in the test on HT29 colon it was 0.0025 µM; in the test on MDA-MB-435, 0.000285 µM; in the test on OVCAR-8 ovarian it was 0.000731 µM and 0.000103 µM. The TGI in the test with DU-145 prostate is 0.000138 µM and 0.000556 µM; in the test on HCC-2998 colon, 0.000891 µM; in the test on HT29 colon, 0.0427 µM and 0.131 µM and 0.0337 µM; in the test on MDA-MB-435 it was 0.000256 µM and 0.00129 µM; with SF-295 CNS, 0.000154 µM and 0.0012 µM; in the test with SR leukemia, 0.00495 µM and 0.0102 µM.

Consider `C=C(C)[C@@H]1CC[C@]2(CO)CC[C@]3(C)[C@H](CC[C@@H]4[C@@]5(C)CCC(NCCc6ccc(O)cc6)C(C)(C)[C@@H]5CC[C@]43C)[C@@H]12` (stereo partly drawn), for which the GI50 in the test on 786-0 renal is 1.66 µM; in the test on DU-145 prostate, 1.62 µM; in the test on HCC-2998 colon, 0.97 µM; with HT29 colon, 1.09 µM; in the test with MDA-MB-435 it was 1.43 µM; in the test with SK-MEL-2 melanoma, 1.68 µM. In addition, the values for the GI50 with SR leukemia and in the test on U251 CNS were 0.334 µM and 1.56 µM, respectively. The TGI in the test with 786-0 renal is 3.26 µM; in the test on DU-145 prostate it was 3.03 µM; in the test with HCC-2998 colon, 2.23 µM; in the test with HT29 colon, 2.49 µM; in the test with MDA-MB-435, 2.77 µM; in the test on SK-MEL-2 melanoma, 3.19 µM. Moreover, the TGI in the test with SR leukemia stood at 1.07 µM; with U251 CNS, 2.98 µM.

Turning to `C=C1C(=O)O[C@@H]2C1C[C@@H](O)C(=C)CC/C=C(\C)CCC[C@H](C)[C@H]2OC(C)=O` (stereo partly drawn), the GI50 with 786-0 renal was 4.84 µM; with DU-145 prostate, 11.9 µM; in the test on HCC-2998 colon it was 15.4 µM; in the test with HT29 colon, 4.17 µM; in the test on MDA-MB-435, 12.9 µM; in the test on OVCAR-8 ovarian it was 15.4 µM. For the same compound, the GI50 in the test with SF-295 CNS was 17.1 µM; in the test on SK-MEL-2 melanoma, 12.9 µM; in the test with U251 CNS, 5.83 µM. Moreover, the TGI is 16.3 µM with 786-0 renal; 25.3 µM in the test with DU-145 prostate; 29.2 µM in the test with HCC-2998 colon; greater than 100 µM in the test with HT29 colon; 26.7 µM with MDA-MB-435; 45.4 µM in the test with OVCAR-8 ovarian. The TGI in the test with SF-295 CNS was 31.9 µM; in the test on SK-MEL-2 melanoma, 31.1 µM; in the test with U251 CNS, 23.3 µM.

Turning to `S=C(N/N=C(/c1ccccc1)c1ccccn1)N1CCCCCC1`, the GI50 in the test on 786-0 renal is less than 0.001 µM; in the test on DU-145 prostate, 1.03 µM; in the test on HCC-2998 colon it was 1.17 µM; with HT29 colon it was 0.00724 µM; in the test on MDA-MB-435, 0.043 µM; in the test with OVCAR-8 ovarian it was 0.00375 µM. Besides, the GI50 is 0.564 µM in the test with SF-295 CNS, 0.0269 µM with SK-MEL-2 melanoma and 0.00287 µM with U251 CNS. In addition, the TGI is 1.46 µM and 1.77 µM in the test on 786-0 renal; 2.19 µM and 2.15 µM with DU-145 prostate; 3.13 µM and 1.98 µM in the test with HCC-2998 colon; 3.41 µM and 1.8 µM with HT29 colon; 1.59 µM and 1.58 µM in the test on MDA-MB-435; 1.65 µM and 1.33 µM in the test on OVCAR-8 ovarian. Moreover, the TGI is 2.08 µM and 1.51 µM in the test with SF-295 CNS; 2.12 µM and 2.14 µM in the test with SK-MEL-2 melanoma; 1.22 µM and 1.27 µM in the test on U251 CNS.

In the case of `CCCCN(CCCC)CCCn1c(=O)c2c3ccccc3n(C)c2n2nnc(-c3ccccc3)c12`, the GI50 was 39 µM with 786-0 renal; 47.6 µM in the test with DU-145 prostate; 20.3 µM in the test on HCC-2998 colon; 7.72 µM with HT29 colon; 39 µM in the test on MDA-MB-435; 39.7 µM with OVCAR-8 ovarian. Moreover, the GI50 was 31.9 µM in the test on SF-295 CNS, greater than 100 µM with SK-MEL-2 melanoma and 32.9 µM in the test with U251 CNS. Moreover, the TGI was greater than 100 µM in the test with 786-0 renal; greater than 100 µM in the test on DU-145 prostate; greater than 100 µM with HCC-2998 colon; 36.3 µM in the test on HT29 colon; greater than 100 µM in the test with MDA-MB-435; greater than 100 µM in the test with OVCAR-8 ovarian. Further, the TGI in the test on SF-295 CNS, with SK-MEL-2 melanoma and in the test with U251 CNS was greater than 100 µM throughout.

As to `CN(C)CCOC(c1ccccc1)c1ccccc1`, the GI50 was 35.1 µM in the test with 786-0 renal; 40.3 µM in the test on DU-145 prostate; 23.8 µM with HT29 colon; 24.6 µM with MDA-MB-435; 14.8 µM with OVCAR-8 ovarian; 35.5 µM with SK-MEL-2 melanoma. The TGI was 49.8 µM and > 100 µM with 786-0 renal; 55.8 µM and > 100 µM in the test with DU-145 prostate; greater than 100 µM with HCC-2998 colon; 45.5 µM and > 100 µM in the test with HT29 colon; 44.1 µM and > 100 µM with MDA-MB-435; 22.7 µM and > 100 µM in the test with OVCAR-8 ovarian. For the same compound, the TGI in the test on SK-MEL-2 melanoma was 51.6 µM and > 100 µM; with SR leukemia, greater than 100 µM.
